Laboratory results reported in patent US7160708B2, “Fatty alcohol oxidase genes and proteins from Candida tropicalis and methods relating thereto” (Cognis Corporation, priority 2002, dated 2007).

Tests used:
C=CCCCCCCCCCO = test: purified protein, by the assay type
CCCCCCCCCCCCCCCCO = test: purified protein, by the assay type
CCCCCCCCCCCCCCO = test: purified protein, by the assay type
CCCCCCCCCCCCO = test: purified protein, by the assay type
CCCCCCCCCCO = test: purified protein, by the assay type
CCCCCCCCO = test: purified protein, by the assay type
O=C(O)CCCCCCCCCCCCCCCO = test: purified protein, by the assay type; conditions: other: pH 7.6, HEPES/Triton X-100 buffer, enzyme constant, alcohol concentration varied
From the text: The assay is a two-enzyme coupled reaction. […] At the same time it reduces molecular oxygen to hydrogen peroxide. A second enzyme in the reaction mixture, peroxidase derived from horseradish (HRP), uses electrons obtained by oxidizing hydrogen peroxide to reduce 2,2′-azino-bis(3-ethylbenzthiazoline-6-sulfonic acid) (ABTS) in the reaction mixture. Reduced ABTS absorbs strongly at 405 nm. The quality of HRP is important, since it has been observed that commercially obtained preparations vary in quality. It is necessary, therefore, to obtain preparations of highest purity. The HRP (Sigma #P8415) was made at a concentration of 2 mg/ml (≈250 units/mg) in 50 mM potassium phosphate buffer, pH 7.6.
FAO1, FAO2a and FAO2a′ were tested for their activity with various alcohols. […] The final concentration of the alcohol used in the substrate specificity experiment was 200 μM. These same alcohols were used to determine the Km and Vmax of FAO1, FAO2a, and FAO2a′.
(§2) In this case, all reactions contained the same amount of acetone (20 μl/ml).

OCCCCCCCCCCCCCCCCO = test: purified protein, by the assay type
OCCCCCCCCCCO = test: purified protein, by the assay type
FAO1 or FAO2 = test: Alcohols used for substrate specificity testing, activity detected with either enzyme; type: biochemical, Candida tropicalis; design: key: X: Activity detected using this substrate with either FAO1 or FAO2; conditions: final alcohol concentration 200 μM
From the text: The assay procedure used is a modification of an assay used by Kemp et al (1). The assay is a two-enzyme coupled reaction. Dodecanol was used as the substrate for the FAO, which oxidizes the dodecanol to dodecanal. At the same time it reduces molecular oxygen to hydrogen peroxide. A second enzyme in the reaction mixture, peroxidase derived from horseradish (HRP), uses electrons obtained by oxidizing hydrogen peroxide to […] 2,2′-azino-bis(3-ethylbenzthiazoline-6-sulfonic acid) (ABTS) in the reaction mixture. […] absorbs strongly at 405 nm. The quality of HRP is important, since it has been observed that commercially obtained preparations vary in quality. It is necessary, therefore, to obtain preparations of highest purity. The HRP (Sigma #P8415) was made at a concentration of 2 mg/ml (≈250 units/mg) in 50 mM potassium phosphate buffer, pH 7.6.
After adding the extract, the activity was generally read at 405 nm for one minute at room temperature. The amount of extract that was added to the reaction mixture was varied so that the activity fell within the range of 0.2 to 1.0 ΔA^405 nm/min. Alcohol oxidase activity was reported as specific activity units/mg protein (1 unit=μmole substrate oxidized/min). An extinction coefficient at 405 nm of 18.4 was used for ABTS and was equivalent to 0.5 mM oxidized substrate. In certain substrate-specificity experiments, 200 mM HEPES buffer, pH 7.6, containing 0.5% Triton X100 was used in place of the 200 mM HEPES buffer in the reaction mixture described above. The detergent aided in solubilizing some of the more water-insoluble substrates tested.
FAO1, FAO2a and FAO2a′ were tested for their activity with various alcohols. The alcohols shown in Table 5 were prepared in 20 mM stock solutions in acetone. Alcohols showing activity with either FAO1 or FAO2a are indicated. The final concentration of the alcohol used in the substrate specificity experiment was 200 μM. These same alcohols were used to determine the Km and Vmax of FAO1, FAO2a, and FAO2a′. […] There was a big drop in activity in going from a C8 alcohol to a C6 alcohol with FAO1, FAO2a, and FAO2a′. FAO2a and FAO2a′ oxidize 2-octanols fairly well; however no activity was detected with FAO1. In contrast, FAO1 oxidizes ω-hydroxy fatty acids well, but no activity for ω-hydroxy fatty acids was measured with FAO2a and FAO2a′ (FIG. 6). […] Although the substrate specificity of FAO2b was not performed, due to the close homology with FAO2a, it is likely to be very similar.

FAO1 = FAO1 (Candida tropicalis, UniProt Q6QIR6); test: FAO enzyme assay (HRP/ABTS coupled) with FAO1 expressed in E. coli: substrate specificity and Km; conditions: for Activity of FAO1 with the alcohol (substrate specificity): 200 μM alcohol, relative to dodecanol set at 100%, FIG. 4-6
Chain of FAO1 (Q6QIR6 entry or part of it): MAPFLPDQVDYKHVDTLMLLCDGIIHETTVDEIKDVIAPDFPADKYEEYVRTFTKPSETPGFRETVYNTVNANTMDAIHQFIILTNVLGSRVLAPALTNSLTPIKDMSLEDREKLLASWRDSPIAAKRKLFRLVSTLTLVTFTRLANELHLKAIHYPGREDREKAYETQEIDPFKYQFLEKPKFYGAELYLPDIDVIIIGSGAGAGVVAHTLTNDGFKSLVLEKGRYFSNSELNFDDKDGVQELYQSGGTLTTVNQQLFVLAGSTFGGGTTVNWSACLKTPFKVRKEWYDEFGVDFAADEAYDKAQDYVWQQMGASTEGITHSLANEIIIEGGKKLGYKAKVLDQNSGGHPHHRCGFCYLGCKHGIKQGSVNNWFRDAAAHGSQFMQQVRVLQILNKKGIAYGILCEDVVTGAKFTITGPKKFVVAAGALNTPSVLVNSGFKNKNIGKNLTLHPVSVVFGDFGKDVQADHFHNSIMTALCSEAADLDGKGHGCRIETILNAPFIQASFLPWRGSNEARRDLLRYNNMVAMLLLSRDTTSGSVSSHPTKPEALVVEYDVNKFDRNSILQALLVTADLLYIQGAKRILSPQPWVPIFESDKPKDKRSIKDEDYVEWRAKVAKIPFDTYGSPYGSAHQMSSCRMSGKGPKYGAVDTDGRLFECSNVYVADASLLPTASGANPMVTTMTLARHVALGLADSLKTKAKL
From the text: (§1) The assay is a two-enzyme coupled reaction. […] ABTS absorbs strongly at 405 nm.

FAO from C. maltosa = conditions: cited from earlier work
CCCCCCCCC(C)O = test: purified protein, by the assay type
CCCCCCCCCC(C)O = test: purified protein, by the assay type
CCCCCCCCCCC(C)O = test: purified protein, by the assay type
CCCCCCCCCCC(O)CO = test: purified protein, by the assay type
CCCCCCCCCCCCCCC(C)O = test: purified protein, by the assay type
fatty alcohol oxidase = test: FAO activity of extracts made from fermentor samples induced with HOSFFA; type: biochemical, Candida tropicalis; conditions: data not shown
From the text: as §1

[1] = system: FAO from C. tropicalis (ATCC 20336); conditions: cited from earlier work; for Oxidation by purified C. tropicalis FAO: purified enzyme (ref. 3); for Oxidation by C. tropicalis FAO (Kemp et al. 1988): cells grown on hexadecane
FAO2a = FAO2a (Candida tropicalis, UniProt Q6QIR5, S177L); type: biochemical; conditions: for Km FAO2a: pH 7.6, HEPES/Triton X-100 buffer, enzyme constant, alcohol concentration varied; for Activity of FAO2a with the alcohol (substrate specificity): 200 μM alcohol, relative to dodecanol set at 100%, FIG. 4-6
Chain of FAO2a (Q6QIR5 whole entry S177L): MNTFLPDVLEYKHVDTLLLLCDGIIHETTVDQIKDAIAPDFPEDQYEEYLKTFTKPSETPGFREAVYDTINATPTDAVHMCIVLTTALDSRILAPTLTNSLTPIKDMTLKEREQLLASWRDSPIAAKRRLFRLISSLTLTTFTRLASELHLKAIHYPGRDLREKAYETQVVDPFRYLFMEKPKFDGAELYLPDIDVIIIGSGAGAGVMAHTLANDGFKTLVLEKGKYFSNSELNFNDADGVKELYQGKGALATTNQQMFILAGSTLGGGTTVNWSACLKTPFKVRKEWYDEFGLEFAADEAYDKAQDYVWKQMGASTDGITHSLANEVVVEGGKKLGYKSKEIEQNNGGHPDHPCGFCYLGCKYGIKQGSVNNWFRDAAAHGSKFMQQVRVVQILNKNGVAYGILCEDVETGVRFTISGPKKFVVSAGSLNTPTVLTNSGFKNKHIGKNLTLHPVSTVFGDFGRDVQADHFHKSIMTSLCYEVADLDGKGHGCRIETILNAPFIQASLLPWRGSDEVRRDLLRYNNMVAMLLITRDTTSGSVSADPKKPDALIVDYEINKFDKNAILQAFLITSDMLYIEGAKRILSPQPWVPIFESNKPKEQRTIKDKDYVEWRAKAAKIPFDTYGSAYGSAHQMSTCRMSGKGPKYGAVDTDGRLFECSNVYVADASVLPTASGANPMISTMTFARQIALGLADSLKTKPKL
From the text: as §1

FAO2a′ = FAO2a′ (Candida tropicalis, UniProt Q6QIR5); test: FAO enzyme assay (HRP/ABTS coupled) with FAO2a′ (CTG-codon-altered FAO2a) expressed in E. coli: substrate specificity and Km; conditions: 200 μM alcohol; relative to dodecanol set at 100%; FIG. 4-6
Chain of FAO2a′ (Q6QIR5 entry or part of it): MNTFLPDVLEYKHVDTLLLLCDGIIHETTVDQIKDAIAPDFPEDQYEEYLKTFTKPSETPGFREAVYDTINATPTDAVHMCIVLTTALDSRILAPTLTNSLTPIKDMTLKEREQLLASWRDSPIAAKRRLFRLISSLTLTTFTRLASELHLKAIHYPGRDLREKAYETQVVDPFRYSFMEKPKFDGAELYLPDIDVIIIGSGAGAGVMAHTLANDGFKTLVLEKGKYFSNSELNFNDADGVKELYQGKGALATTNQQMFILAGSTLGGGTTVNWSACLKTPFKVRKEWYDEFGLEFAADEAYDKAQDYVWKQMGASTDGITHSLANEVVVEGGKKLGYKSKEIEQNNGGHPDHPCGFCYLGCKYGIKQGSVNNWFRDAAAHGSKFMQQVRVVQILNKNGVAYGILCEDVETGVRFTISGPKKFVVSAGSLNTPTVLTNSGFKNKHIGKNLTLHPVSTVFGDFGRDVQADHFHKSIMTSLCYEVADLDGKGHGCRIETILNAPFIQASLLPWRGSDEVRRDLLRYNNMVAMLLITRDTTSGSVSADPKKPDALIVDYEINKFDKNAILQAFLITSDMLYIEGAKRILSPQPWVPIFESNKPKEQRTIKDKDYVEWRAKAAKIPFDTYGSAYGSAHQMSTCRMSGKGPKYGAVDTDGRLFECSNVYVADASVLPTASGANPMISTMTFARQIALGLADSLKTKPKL
Method: The assay is a two-enzyme coupled reaction. […] At the same time it reduces molecular oxygen to hydrogen peroxide. A second enzyme in the reaction mixture, peroxidase derived from horseradish (HRP), uses electrons obtained by oxidizing hydrogen peroxide to reduce 2,2′-azino-bis(3-ethylbenzthiazoline-6-sulfonic acid) (ABTS) in the reaction mixture. Reduced ABTS absorbs strongly at 405 nm. […] The HRP (Sigma #P8415) was made at a concentration of 2 mg/ml (≈250 units/mg) in 50 mM potassium phosphate buffer, pH 7.6.
Initially, only the properties of the enzyme derived from the native sequence of FAO2a were determined. […] The properties of both FAO2a and FAO2a′ were determined as described in the following examples.
FAO1, FAO2a and FAO2a′ were tested for their activity with various alcohols. The alcohols shown in Table 5 were prepared in 20 mM stock solutions in acetone. […] The final concentration of the alcohol used in the substrate specificity experiment was 200 μM. These same alcohols were used to determine the Km and Vmax of FAO1, FAO2a, and FAO2a′.
as §2

[2] = other: pH 7.6, HEPES/Triton X-100 buffer, enzyme constant, alcohol concentration varied
[3] = other: 0.1 M HEPES, pH 7.6, substrate stocks in acetone (20 μl/ml)

FAO1 (Candida tropicalis)
Km (C=CCCCCCCCCCO; [2]): 9.9 μM μM
Km (CCCCCCCCCCCCCCCCO; [2]): 11.9 μM μM
Km (CCCCCCCCCCCCCCO; [2]): 28.1 μM μM
Km (CCCCCCCCCCCCO; [2]): 14.9 μM μM
Km (CCCCCCCCCCO; [2]): 15.1 μM μM
Km (CCCCCCCCO; [2]): 41.0 μM μM
Km (O=C(O)CCCCCCCCCCCCCCCO): 7.4 μM μM
Km (OCCCCCCCCCCCCCCCCO; [2]): 10.3 μM μM
Km (OCCCCCCCCCCO; [2]): 67.0 μM μM

CCCCCCCCC(C)O (centres unmarked) [2-Decanol]
Activity Detected (FAO1 or FAO2): X

CCCCCCCCO [Octanol]
Activity of FAO1 with the alcohol (substrate specificity) (FAO1): preferred 1-octanol as substrate
Activity Detected (FAO1 or FAO2): X
Oxidation by C. maltosa FAO (FAO from C. maltosa): highest activity

FAO2a (Candida tropicalis; S177L)
Km (C=CCCCCCCCCCO; [2]): 45 µM
Km (CCCCCCCCC(C)O; [2]): 934 µM
Km (CCCCCCCCCC(C)O; [2]): 141 µM
Km (CCCCCCCCCCC(C)O; [2]): 41.3 µM
Km (CCCCCCCCCCC(O)CO; [2]): 998 µM
Km (CCCCCCCCCCCCCCC(C)O; [2]): 350 µM
Km (CCCCCCCCCCCCCCCCO; [2]): 56 µM
Km (CCCCCCCCCCCCCCO; [2]): 4.6 µM
Km (CCCCCCCCCCCCO; [2]): 2.5 µM
Km (CCCCCCCCCCO; [2]): 74 µM
Km (CCCCCCCCO; [2]): 503 µM
Km (OCCCCCCCCCCCCCCCCO; [2]): 37.3 µM
Km (OCCCCCCCCCCO; [2]): 425 µM

16-Hydroxydodecanoic acid
Activity Detected (FAO1 or FAO2): X

CCCCCCCCCCC(O)CO (centres unmarked) [1,2-Dodecanediol]
Activity Detected (FAO1 or FAO2): X

CCCCCCCCCCC(C)O (centres unmarked) [2-Dodecanol]
Activity Detected (FAO1 or FAO2): X
Activity of extracts from HOSFFA-induced fermentor samples with the alcohol (fatty alcohol oxidase): no activity
Oxidation by purified C. tropicalis FAO [1]: additional activity

CCCCCCO [Hexanol]
Activity Detected (FAO1 or FAO2): X

FAO2a′ (Candida tropicalis)
Km (C=CCCCCCCCCCO; [3]): 36.1 µM
Km (CCCCCCCCC(C)O; [3]): 1090 µM
Km (CCCCCCCCCC(C)O; [3]): 162 µM
Km (CCCCCCCCCCC(C)O; [3]): 75.3 µM
Km (CCCCCCCCCCC(O)CO; [3]): 928 µM
Km (CCCCCCCCCCCCCCC(C)O; [3]): 720 µM
Km (CCCCCCCCCCCCCCCCO; [3]): 85 µM
Km (CCCCCCCCCCCCCCO; [3]): 2.4 µM
Km (CCCCCCCCCCCCO; [3]): 4.4 µM
Km (CCCCCCCCCCO; [3]): 69.6 µM
Km (CCCCCCCCO; [3]): 654 µM
Km (OCCCCCCCCCCCCCCCCO; [3]): 16.3 µM
Km (OCCCCCCCCCCO; [3]): 1607 µM

O=C(O)CCCCCCCCCCCCCCCO [16-hydroxy-hexadecanoic, 16-hydroxyhexadecanoic acid]
Km FAO1 (FAO1; pH 7.6, HEPES/Triton X-100 buffer, enzyme constant, alcohol concentration varied): lowest Km value
Activity of extracts from HOSFFA-induced fermentor samples with the alcohol (fatty alcohol oxidase): good activity
Oxidation by C. tropicalis FAO (Kemp et al. 1988) [1]: oxidize
Oxidation by C. maltosa FAO (FAO from C. maltosa): fairly low rates of oxidation

CCCCCCCCCCCCCCO [Tetradecanol]
Activity of FAO1 with the alcohol (substrate specificity) (FAO1): the preferred longer-chain alcohol
Km FAO2a (FAO2a): lowest Km values
Activity Detected (FAO1 or FAO2): X

C=CCCCCCCCCCO [10-Undecen-1-ol]
Activity of FAO2a with the alcohol (substrate specificity) (FAO2a): much better than FAO1
Activity Detected (FAO1 or FAO2): X
Activity of FAO2a′ with the alcohol (substrate specificity) (FAO2a′): much better than FAO1

CCCCCCCCCCO [Decanol]
Activity Detected (FAO1 or FAO2): X

OCCCCCCCCCCO [1,10-Decanediol]
Activity Detected (FAO1 or FAO2): X

O=C(O)CCCCCCCCCCCO [12-Hydroxydodecanoic acid]
Activity Detected (FAO1 or FAO2): X
Oxidation by C. tropicalis FAO (Kemp et al. 1988) [1]: not
Oxidation by purified C. tropicalis FAO [1]: additional activity

CCCCCCCCCC(C)O (centres unmarked) [2-Undecanol]
Activity Detected (FAO1 or FAO2): X

CCCCCCC(O)CO (centres unmarked) [1,2-Octanediol]
Activity Detected (FAO1 or FAO2): X

CCCCCCCCCCCCO [Dodecanol]
Activity of FAO2a with the alcohol (substrate specificity) (FAO2a): preferred 1-dodecanol above all other 1-alkanols
Km FAO2a (FAO2a): lowest Km values
Activity Detected (FAO1 or FAO2): X
Oxidation by C. tropicalis FAO (Kemp et al. 1988) [1]: maximal activity
Activity of FAO2a′ with the alcohol (substrate specificity) (FAO2a′): preferred 1-dodecanol above all other 1-alkanols

CCCCCCCCCCCCCCCCO [Hexadecanol]
Activity Detected (FAO1 or FAO2): X

CCCCCCCCCCCCCCC(C)O (centres unmarked) [2-Hexadecanol]
Activity Detected (FAO1 or FAO2): X

OCCCCCCCCCCCCCCCCO [1,16-Hexadecanediol]
Activity Detected (FAO1 or FAO2): X

O=C(O)CCCCCCCCCO [10-Hydroxydecanoic acid]
Activity Detected (FAO1 or FAO2): X
